From patent publication US11787780B2 (CORCEPT THERAPEUTICS INCORPORATED, priority 2020, dated 2023)
pKi: −log10 of the molar value.

Tested on: induction of TAT by dexamethasone in HepG2 cells
Assay: Hep G2 TAT assay (inhibition of dexamethasone-induced TAT)
Type: cell-based, human
Conditions: challenge of 100 nM dexamethasone, IC50 converted to Ki by Cheng and Prusoff equation
Method: Glucocorticoid mediated activation of TAT occurs by transactivation of glucocorticoid response elements in the TAT promoter by glucocorticoid receptor-agonist complex. The following protocol describes an assay for measuring induction of TAT by dexamethasone in HepG2 cells (a human liver hepatocellular carcinoma cell line; ECACC, UK).
TAT activity was measured as outlined in the literature by A. Ah et al., J. Med. Chem., 2004, 47, 2441-2452.
HepG2 cells were cultured using MEME media supplemented with 10% (v/v) foetal bovine serum; 2 mM L-glutamine and 1% (v/v) NEAA at 37° C., 5%/95% (v/v) CO2/air. The HepG2 cells were counted and adjusted to yield a density of 0.125×10^6 cells/ml in RPMI 1640 without phenol red, 10% (v/v) charcoal stripped FBS, 2 mM L-glutamine and seeded at 25,000 cells/well in 200 μl into 96 well, sterile, tissue culture micro titre plates, and incubated at 37° C., 5% CO2 for 24 hours
Growth media was removed and replaced with assay media {RPMI 1640 without phenol red, 2 mM L-glutamine+10 μM forskolin}. Test compounds were screened against a challenge of 100 nM dexamethasone. Compounds were serially half log diluted in 100% (v/v) dimethylsulphoxide from a 10 mM stock.
Test compounds were pre-incubated with cells in micro-titre plates for 30 minutes at 37° C., 5/95 (v/v) CO2/air, before the addition of 100 nM dexamethasone and then subsequently for 20 hours to allow optimal TAT induction.
HepG2 cells were then lysed with 30 μl of cell lysis buffer containing a protease inhibitor cocktail for 15 minutes at 4° C. […] After 2 hours incubation at 37° C. the reaction was terminated by the addition of 15 μl of 10M aqueous potassium hydroxide solution, and the plates incubated for a further 30 minutes at 37° C. The TAT activity product was measured by absorbance at λ 340 nm.
[compound] and fitting the data to a 4 parameter logistic equation. IC50 values were converted to Ki (equilibrium dissociation constant) using the Cheng and Prusoff equation, assuming the antagonists were competitive inhibitors with respect to dexamethasone.

For `Cc1cc2c(cnn2-c2ccc(=O)n(C(C)C)c2)cc1C1(Cc2ccccc2)CCN(S(=O)(=O)c2cnn(C)n2)C1` (stereo not drawn) [Example 269, 5-(5-(3-benzyl-1-((2-methyl-2H-1,2,3-triazol-4-yl)sulfonyl)pyrrolidin-3-yl)-6-methyl-1H-indazol-1-yl)-1-isopropylpyridin-2(1H)-one], the pKi was 5.89.

Work on `Cc1cc2c(cnn2-c2ccc(=O)n(C3CC3)c2)cc1C1(Cc2ccccc2)CCN(S(=O)(=O)c2cnn(C)n2)C1` (stereo not drawn) [Example 270, 5-(5-(3-benzyl-1-((2-methyl-2H-1,2,3-triazol-4-yl)sulfonyl)pyrrolidin-3-yl)-6-methyl-1H-indazol-1-yl)-1-cyclopropylpyridin-2(1H)-one] yielded a pKi of 6.22.

Compound `CCCn1cc(S(=O)(=O)N2CCC(Cc3ccccc3)(c3cc4cnn(C5CCC(=O)N(C)C5)c4cc3C)C2)cn1` (stereo not drawn) [Example 273, 5-(5-(3-benzyl-1-((1-propyl-1H-pyrazol-4-yl)sulfonyl)pyrrolidin-3-yl)-6-methyl-1H-indazol-1-yl)-1-methylpiperidin-2-one] has a pKi of 6.55.

With `Cn1ncc(S(=O)(=O)N2CCC(Cc3ccccc3)(c3cc4cnn(-c5ccc(=O)n(C)c5)c4cc3Cl)C2)n1` (stereo not drawn) [Example 277, 5-(5-(3-benzyl-1-((2-methyl-2H-1,2,3-triazol-4-yl)sulfonyl)pyrrolidin-3-yl)-6-chloro-1H-indazol-1-yl)-1-methylpyridin-2(1H)-one] the pKi was 7.27.

Compound `Cc1cc2c(cnn2-c2ccc(=O)n(C)c2)cc1C1(Cc2ccccc2)CCN(S(=O)(=O)c2cnn(CC(F)(F)F)c2)C1` (stereo not drawn) [Example 278, 5-(5-(3-benzyl-1-((1-(2,2,2-trifluoroethyl)-1H-pyrazol-4-yl)sulfonyl)pyrrolidin-3-yl)-6-methyl-1H-indazol-1-yl)-1-methylpyridin-2(1H)-one] has a pKi of 7.36.

In the case of `Cc1cc2c(cnn2-c2ccc(=O)n(C)c2)cc1C1(Cc2ccccc2)CCN(S(=O)(=O)c2cnn(C3CCC3)c2)C1` (stereo not drawn) [Example 279, 5-(5-(3-benzyl-1-((1-cyclobutyl-1H-pyrazol-4-yl)sulfonyl)pyrrolidin-3-yl)-6-methyl-1H-indazol-1-yl)-1-methylpyridin-2(1H)-one], the pKi was 7.30.

For `Cc1cc2c(cnn2-c2ccc(=O)n(C)c2)cc1C1(Cc2ccccc2)CCN(S(=O)(=O)c2cnn(C(F)F)c2)C1` (stereo not drawn) [Example 280, 5-(5-(3-benzyl-1-((1-(difluoromethyl)-1H-pyrazol-4-yl)sulfonyl)pyrrolidin-3-yl)-6-methyl-1H-indazol-1-yl)-1-methylpyridin-2(1H)-one], the pKi was 7.38.

With `COCCn1cc(S(=O)(=O)N2CCC(Cc3ccccc3)(c3cc4cnn(-c5ccc(=O)n(C)c5)c4cc3C)C2)cn1` (stereo not drawn) [Example 281, 5-(5-(3-benzyl-1-((1-(2-methoxyethyl)-1H-pyrazol-4-yl)sulfonyl)pyrrolidin-3-yl)-6-methyl-1H-indazol-1-yl)-1-methylpyridin-2(1H)-one] the pKi was 7.12.

Work on `Cc1cc2c(cnn2-c2ccc(=O)n(C)c2)cc1C1(Cc2ccccc2)CCN(S(=O)(=O)c2cn(C)nc2C)C1` (stereo not drawn) [Example 282, 5-(5-(3-benzyl-1-((1,3-dimethyl-1H-pyrazol-4-yl)sulfonyl)pyrrolidin-3-yl)-6-methyl-1H-indazol-1-yl)-1-methylpyridin-2(1H)-one] yielded a pKi of 6.92.

With `Cc1cc(S(=O)(=O)N2CCC(Cc3ccccc3)(c3cc4cnn(-c5ccc(=O)n(C)c5)c4cc3C)C2)n(C)n1` (stereo not drawn) [Example 283, 5-(5-(3-benzyl-1-((1,3-dimethyl-1H-pyrazol-5-yl)sulfonyl)pyrrolidin-3-yl)-6-methyl-1H-indazol-1-yl)-1-methylpyridin-2(1H)-one] the pKi was 7.19.

Compound `Cc1cc2c(cnn2-c2ccc(=O)n(C)c2)cc1C1(Cc2ccccc2)CCN(S(=O)(=O)c2cnn(C)c2C)C1` (stereo not drawn) [Example 284, 5-(5-(3-benzyl-1-((1,5-dimethyl-1H-pyrazol-4-yl)sulfonyl)pyrrolidin-3-yl)-6-methyl-1H-indazol-1-yl)-1-methylpyridin-2(1H)-one] has a pKi of 7.24.

`Cc1cc2c(cnn2-c2ccc(=O)n(C)c2)cc1C1(Cc2ccccc2)CCN(S(=O)(=O)c2nccn2C)C1` (stereo not drawn) [Example 285, 5-(5-(3-benzyl-1-((1-methyl-1H-imidazol-2-yl)sulfonyl)pyrrolidin-3-yl)-6-methyl-1H-indazol-1-yl)-1-methylpyridin-2(1H)-one] showed a pKi of 7.09.

With `CCn1cc(S(=O)(=O)N2CCC(Cc3ccccc3)(c3cc4cnn(-c5ccc(=O)n(C)c5)c4cc3C)C2)nn1` (stereo not drawn) [Example 291, 5-(5-(3-benzyl-1-((1-ethyl-1H-1,2,3-triazol-4-yl)sulfonyl)pyrrolidin-3-yl)-6-methyl-1H-indazol-1-yl)-1-methylpyridin-2(1H)-one] the pKi was 6.96.

With `Cc1cc2c(cnn2-c2ccc(=O)n(C)c2)cc1C1(Cc2ccccc2)CCN(S(=O)(=O)c2cnn(CC(C)C)c2)C1` (stereo not drawn) [Example 319, 5-(5-(3-benzyl-1-((1-isobutyl-1H-pyrazol-4-yl)sulfonyl)pyrrolidin-3-yl)-6-methyl-1H-indazol-1-yl)-1-methylpyridin-2(1H)-one] the pKi was 7.34.

`CCc1cc2c(cnn2-c2ccc(=O)n(C)c2)cc1C1(Cc2ccccc2)CCN(S(=O)(=O)c2cnn(C)n2)C1` (stereo not drawn) [Example 333, 5-(5-(3-benzyl-1-((2-methyl-2H-1,2,3-triazol-4-yl)sulfonyl)pyrrolidin-3-yl)-6-ethyl-1H-indazol-1-yl)-1-methylpyridin-2(1H)-one] gave a pKi of 7.39.

Compound `Cn1ncc(S(=O)(=O)N2CCC(Cc3ccccc3)(c3cc4cnn(-c5ccc(F)cc5)c4cc3C#N)C2)n1` (stereo not drawn) [Example 334, 5-(3-benzyl-1-((2-methyl-2H-1,2,3-triazol-4-yl)sulfonyl)pyrrolidin-3-yl)-1-(4-fluorophenyl)-1H-indazole-6-carbonitrile] has a pKi of 7.28.

`Cc1cc2c(cnn2-c2ccc(F)cc2)cc1C1(/C=C/c2ccccc2)CCN(S(=O)(=O)c2cnn(C)c2)C1` (stereo not drawn) [Example 342, (E)-1-(4-fluorophenyl)-6-methyl-5-(1-((1-methyl-1H-pyrazol-4-yl)sulfonyl)-3-styrylpyrrolidin-3-yl)-1H-indazole] was tested, and the pKi was 6.96.

`Cc1cc2c(cnn2-c2ccc(F)cc2)cc1C1(CCc2ccccc2)CCN(S(=O)(=O)c2cnn(C)c2)C1` (stereo not drawn) [Example 343, 1-(4-fluorophenyl)-6-methyl-5-(1-((1-methyl-1H-pyrazol-4-yl)sulfonyl)-3-phenethylpyrrolidin-3-yl)-1H-indazole] was tested, and the pKi was 6.92.

Compound `Cc1cc2c(cnn2-c2ccc(F)cc2)cc1C1(COc2ccccc2)CCN(S(=O)(=O)c2cnn(C)c2)C1` (stereo not drawn) [Example 344, 1-(4-fluorophenyl)-6-methyl-5-(1-((1-methyl-1H-pyrazol-4-yl)sulfonyl)-3-(phenoxymethyl)pyrrolidin-3-yl)-1H-indazole] has a pKi of 7.01.

For `Cc1cc2c(cnn2-c2ccc(F)cc2)cc1C1(C(=O)c2ccccc2)CCN(S(=O)(=O)c2cnn(C)c2)C1` (stereo not drawn) [Example 345, (3-(1-(4-fluorophenyl)-6-methyl-1H-indazol-5-yl)-1-((1-methyl-1H-pyrazol-4-yl)sulfonyl)pyrrolidin-3-yl)(phenyl)methanone], the pKi was 6.66.

For `Cc1cc2c(cnn2-c2ccc(F)cc2)cc1C1(CCCc2ccccc2)CCN(S(=O)(=O)c2cnn(C)c2)C1` (stereo not drawn) [Example 346, 1-(4-fluorophenyl)-6-methyl-5-(1-((1-methyl-1H-pyrazol-4-yl)sulfonyl)-3-(3-phenylpropyl)pyrrolidin-3-yl)-1H-indazole], the pKi was 6.85.
